Converted amounts (≈) assume the structure as drawn. The source made the active and inactive calls. The rule behind the calls is not given here. A value given as a limit tells only on which side of the number the result lay.

The subject of data set [1] is Staphylococcus aureus. Nature of the data set: Inhibition of biofilm formation in Staphylococcus aureus ATCC 25923 at 3.125 to 12.5 ug/ml incubated for 24 hrs by Calgary biofilm device assay. The class given is functional, organism-based. To be noted: dose 3.125-12.5 µg/ml, DDE = dose-dependent effect.
Data set [2] concerns Staphylococcus aureus. In words: Antibacterial activity against antibiotic resistant Staphylococcus aureus ATCC 33592 assessed as inhibition of bacterial growth by CLSI protocol based broth microdilution method. The class given is functional. A general note: In broth dilution the organism is exposed to a series of concentrations in liquid medium.
In data set [3] the test system is Enterococcus faecalis. In words: Anti-biofilm activity against Enterococcus faecalis ATCC 29212 assessed as minimum bactericidal concentration incubated for 24 hrs by Calgary biofilm device assay. To be noted: ATCC 29212, 24 h.
Data set [4] relates to Staphylococcus aureus. In words: Antibacterial activity against antibiotic resistant Staphylococcus aureus BAA-2312 assessed as inhibition of bacterial growth by CLSI protocol based broth microdilution method. The class given is functional.
The test system of data set [5] is Staphylococcus aureus. In words: Antibacterial activity against antibiotic susceptible Staphylococcus aureus ATCC 25923 assessed as inhibition of bacterial growth by CLSI protocol based broth microdilution method. The class given is functional.
The subject of data set [6] is Enterococcus faecalis. Nature of the data set: Anti-biofilm activity against Enterococcus faecalis ATCC 29212 assessed as eradication of biofilm formation incubated for 24 hrs by Calgary biofilm device assay. It counts as functional.
The test system of a further data set is Enterococcus faecium. In words: Antibacterial activity against vancomycin resistant Enterococcus faecium ATCC 700221 assessed as inhibition of bacterial growth by CLSI protocol based broth microdilution method. The class given is functional.
Data set [7] concerns Staphylococcus aureus. Nature of the data set: Anti-biofilm activity against Staphylococcus aureus ATCC 25923 assessed as eradication of biofilm formation incubated for 24 hrs by Calgary biofilm device assay. The class given is functional.
For data set [8], the system named is Staphylococcus aureus. In words: Antibacterial activity against antibiotic resistant Staphylococcus aureus ATCC 33591 assessed as inhibition of bacterial growth by CLSI protocol based broth microdilution method. It counts as functional.
The subject of data set [9] is Staphylococcus aureus. In words: Inhibition of biofilm formation in Staphylococcus aureus ATCC 25923 at 12.5 ug/ml incubated for 24 hrs by Calgary biofilm device assay. It counts as functional.
Data set [10] relates to Staphylococcus aureus. In words: Antibacterial activity against Staphylococcus aureus ATCC 25923 assessed as minimum bactericidal concentration incubated for 24 hrs by Calgary biofilm device assay. To be noted: ATCC 25923, 24 h.
Data set [11] deals with Staphylococcus aureus. In words: Bactericidal activity against Staphylococcus aureus ATCC 700699 assessed as bacteria elimination at 4 times MIC and measured after 6 hrs by time-kill assay. It counts as functional.
Data set [12] relates to Enterococcus faecalis. In words: Antibacterial activity against antibiotic susceptible Enterococcus faecalis ATCC 29212 assessed as inhibition of bacterial growth by CLSI protocol based broth microdilution method. It counts as functional.
Data set [13] concerns Enterococcus faecalis. In words: Anti-biofilm activity against Enterococcus faecalis ATCC 29212 assessed as biofilm eradication at 3.125 to 12.5 ug/ml incubated for 24 hrs by Calgary biofilm device assay. It counts as functional, organism-based. To be noted: dose 3.125-12.5 µg/ml.
Data set [14] deals with Enterococcus faecalis. In words: Inhibition of biofilm formation in Enterococcus faecalis ATCC 29212 at 6.25 ug/ml incubated for 24 hrs by Calgary biofilm device assay. It counts as functional. To be noted: dose 6.25 µg/ml.
A further data set relates to Bacillus subtilis. Nature of the data set: Antibacterial activity against antibiotic resistant Bacillus subtilis ATCC 6623 assessed as inhibition of bacterial growth by CLSI protocol based broth microdilution method. It counts as functional.
Data set [15] has as its system Staphylococcus aureus. In words: Antibacterial activity against antibiotic resistant Staphylococcus aureus ATCC 700699 assessed as inhibition of bacterial growth by CLSI protocol based broth microdilution method. It counts as functional.
Data set [16] has as its system Staphylococcus aureus. Nature of the data set: Bactericidal activity against Staphylococcus aureus ATCC 700699 persisters assessed as log reduction in colony forming unit at 16 times MIC after 4 hrs by colony counting method. It counts as functional.
Data set [17] relates to Enterococcus faecalis. Nature of the data set: Inhibition of biofilm formation in Enterococcus faecalis ATCC 29212 at 12.5 ug/ml incubated for 24 hrs by Calgary biofilm device assay. The class given is functional.
A short description of data set [18]: Cytotoxicity against human HEK293 cells reduction in cell viability incubated for 24 hrs by resazurin cell viability assay. It counts as toxicity, cell-based. (In general: The colour change of resazurin is a common sign of viable cells or microbes.)
Data set [19] has as its system Staphylococcus epidermidis. Nature of the data set: Antibacterial activity against antibiotic resistant Staphylococcus epidermidis ATCC 700296 assessed as inhibition of bacterial growth by CLSI protocol based broth microdilution method. It counts as functional.
Data set [20] has as its system Staphylococcus aureus. In words: Inhibition of RNA synthesis in Staphylococcus aureus ATCC 29213 at 8 times MIC preincubated for 30 mins followed by [3H]-uridine and measured after 30 mins by [3H]-uridine incorporation based beta scintillation counter analysis. It counts as functional. As to conditions: time 60 min; 1 h.
Data set [21] deals with Staphylococcus aureus. Nature of the data set: Inhibition of DNA synthesis in Staphylococcus aureus ATCC 29213 at 8 times MIC preincubated for 30 mins followed by [3H]-thymidine and measured after 30 mins by [3H]-thymidine incorporation based beta scintillation counter analysis. It counts as functional. As to conditions: time 60 min; 1 h. On the technique in general: Incorporation of labelled thymidine or its analogues reports DNA synthesis.

In data set [22] the test system is Staphylococcus aureus. Nature of the data set: Bactericidal activity against Staphylococcus aureus ATCC 700699 persisters assessed as log reduction in colony forming unit at 64 times MIC after 4 hrs by colony counting method. The class given is functional, organism-based.
Data set [23] has as its system Staphylococcus aureus. In words: Bactericidal activity against Staphylococcus aureus ATCC 700699 persisters assessed as log reduction in colony forming unit at 32 times MIC measured for 4 hrs by time kill assay. The class given is functional.
The subject of data set [24] is Staphylococcus aureus. In words: Bactericidal activity against Staphylococcus aureus ATCC 700699 persisters assessed as log reduction in colony forming unit at 16 times MIC measured for 4 hrs by time kill assay. It counts as functional.
Data set [25] concerns Staphylococcus aureus. Nature of the data set: Bactericidal activity against Staphylococcus aureus ATCC 700699 persisters assessed as log reduction in colony forming unit at 2 to 32 times MIC measured for 4 hrs by time kill assay. It counts as functional, organism-based. As to conditions: DDE = dose-dependent effect.

The term inhibition denotes the relative decrease from the control value, in per cent. Usually MIC stands for the lowest concentration that inhibits growth of the organism. In general, IC50 refers to the concentration that gives 50% inhibition. Read a low IC50 as greater potency in that assay. Consider `Cc1cc(NCc2cn(-c3ccc(C(F)(F)F)cc3)nc2-c2ccc(C(=O)O)cc2)ccc1Br`, for which the inhibition result with Staphylococcus aureus [1] was “Dde”. In addition, the MIC in the data set with Staphylococcus aureus [2] was found to be 3.12 µg/mL (≈ 5.88 µM); with Staphylococcus aureus [4] it was 3.12 µg/mL (≈ 5.88 µM); in the data set on Staphylococcus aureus [5] it was 3.12 µg/mL (≈ 5.88 µM); with Enterococcus faecium it was 3.12 µg/mL (≈ 5.88 µM); in the data set with Staphylococcus aureus [8], 6.25 µg/mL (≈ 11.8 µM); in the data set on Enterococcus faecalis [12], 6.25 µg/mL (≈ 11.8 µM). The minimal inhibitory concentration (MIC) with Bacillus subtilis is 1.56 µg/mL (≈ 2.94 µM); in the data set on Staphylococcus aureus [15] it was 1.56 µg/mL (≈ 2.94 µM); in data set [19], 12.5 µg/mL (≈ 23.6 µM). Further, the MBC with Enterococcus faecalis [3] and in the data set with Staphylococcus aureus [10] was 12.5 µg/mL (≈ 23.6 µM) each time. Further, the MBEC in the data set on Enterococcus faecalis [6] was 25 µg/mL; with Staphylococcus aureus [7], 12.5 µg/mL. Also, in the data set on Staphylococcus aureus [9], the inhibition at 12.5 µg/mL is greater than 90%. For the same compound, the Activity in the data set with Staphylococcus aureus [11] was greater than 99.9%. The result with Enterococcus faecalis [13] was Active. The inhibition entry in the data set with Enterococcus faecalis [14] and with Enterococcus faecalis [17] (dose 12.5 µg/ml) was “Active” throughout. Besides, in the data set with Staphylococcus aureus [16], the “log(activity)” value is given as greater than 2. Moreover, the IC50 at 24 h in data set [18] is greater than 12 µg/mL.
On to `CO[C@H]1/C=C/O[C@@]2(C)Oc3c(C)c(O)c4c(O)c(c(/C=N/N5CCN(C)CC5)c(O)c4c3C2=O)NC(=O)/C(C)=C\C=C\[C@H](C)[C@H](O)[C@@H](C)[C@@H](O)[C@@H](C)[C@H](OC(C)=O)[C@@H]1C` [RIFAMPIN], for which the “inhibition (INH)” value with Staphylococcus aureus [20] was 76.3%.
`O=C(O)c1cn(C2CC2)c2cc(N3CCNCC3)c(F)cc2c1=O` [CIPROFLOXACIN]: the “inhibition (INH)” value with Staphylococcus aureus [21] is listed as 86.2%.
Turning to GENTAMICIN, the log(activity) in the data set with Staphylococcus aureus [22] was found to be 1. Moreover, the Activity in the data set with Staphylococcus aureus [11] was greater than 99.9%.
Regarding `O=C(O)c1ccc(-c2nn(-c3ccc(C(F)(F)F)cc3)cc2CNc2ccc(Oc3ccccc3)cc2)cc1`, the inhibition entry with Staphylococcus aureus [1] is “Dde”. Besides, the minimal inhibitory concentration (MIC) amounted to 1.56 µg/mL (≈ 2.95 µM) in the data set with Staphylococcus aureus [2]; 3.12 µg/mL (≈ 5.89 µM) in the data set on Staphylococcus aureus [4]; 1.56 µg/mL (≈ 2.95 µM) in the data set on Staphylococcus aureus [5]; 1.56 µg/mL (≈ 2.95 µM) in the data set with Enterococcus faecium; 3.12 µg/mL (≈ 5.89 µM) in the data set with Staphylococcus aureus [8]; 3.12 µg/mL (≈ 5.89 µM) in the data set on Enterococcus faecalis [12]. The MIC with Bacillus subtilis is 1.56 µg/mL (≈ 2.95 µM); in the data set with Staphylococcus aureus [15], 1.56 µg/mL (≈ 2.95 µM); in data set [19], 3.12 µg/mL (≈ 5.89 µM). Also, the MBC with Enterococcus faecalis [3] worked out at 12.5 µg/mL (≈ 23.6 µM); in the data set on Staphylococcus aureus [10], 3.12 µg/mL (≈ 5.89 µM). Besides, the results for the MBEC in the data set with Enterococcus faecalis [6] and with Staphylococcus aureus [7] were 12.5 µg/mL and 6.25 µg/mL, respectively. The “log(activity)” value in the data set on Staphylococcus aureus [23] is 3; with Staphylococcus aureus [16] it was greater than 2; with Staphylococcus aureus [24], 3. For the same compound, the Activity in the data set on Staphylococcus aureus [11] was greater than 99.9%; in the data set with Staphylococcus aureus [25] it was “Dde”. In addition, in the data set with Enterococcus faecalis [13], the result was Active. Also, the inhibition at 12.5 µg/mL with Enterococcus faecalis [17] was 100%. In [18], this compound registered an IC50 at 24 h of 23.5 µg/mL (≈ 44.4 µM).

The values are drawn from ChEMBL document CHEMBL5107949, “Design, synthesis, and antibacterial activity of N-(trifluoromethyl)phenyl substituted pyrazole derivatives” (RSC Med Chem, 2021).
